Measured values as given in patent US7465740B2, “2-heteroaryl-pyrazolo-[4,3-e]-1,2,4-triazolo-[1,5-c]-pyrimidine adenosine A2a receptor antagonists” (Schering Corporation, priority 2005, dated 2008).

Key:
[1] = molecular target: T1, Human A2a Adenosine Receptor (Homo sapiens, UniProt P29274); experiment: Human adenosine A2a receptor competition binding assay; conditions: [3H]-SCH 58261 displacement, human A2a membranes
T1 construct: purchased Receptor Biology, Inc., Beltsville, Md; RB-HA2a
Protocol: (§1) Human Adenosine A2a and A1 Receitor Competition Binding Assay Protocol Membrane Sources:
A2a: Human A2a Adenosine Receptor membranes, Catalog #RB-HA2a, Receptor Biology, Inc., Beltsville, Md. Dilute to 17 μg/100 μl in membrane dilution buffer (see below).
(§2) Membrane dilution buffer: Dulbecco's Phosphate Buffered Saline (Gibco/BRL)+10 mM MgCl2.
(§3) Compound Dilution Buffer: Dulbecco's Phosphate Buffered Saline (Gibco/BRL)+10 mM MgCl2 supplemented with 1.6 mg/ml methyl cellulose and 16% DMSO. Prepared fresh daily.
A2a: [3H]-SCH 58261, custom synthesis, AmershamPharmacia Biotech, Piscataway, N.J. Stock is prepared at 1 nM in membrane dilution buffer. Final assay concentration is 0.5 nM.
A2a: To determine non-specific binding, add 100 nM CGS 15923 (RBI, Natick, Mass.). Working stock is prepared at 400 nM in compound dilution buffer.
(§4) Prepare 1 mM stock solutions of compounds in 100% DMSO. Dilute in compound dilution buffer. Test at 10 concentrations ranging from 3 μM to 30 pM. Prepare working solutions at 4× final concentration in compound dilution buffer.
(§5) Perform assays in deep well 96 well plates. Total assay volume is 200 μl. Add 50 μl compound dilution buffer (total ligand binding) or 50 μl CGS 15923 working solution (A2a non-specific binding) or 50 μl NECA working solution (A1 non-specific binding) or 50 μl of drug working solution. Add 50 μl ligand stock ([3H]-SCH 58261 for A2a, [3H]-DPCPX for A1). […]

A1 receptor = molecular target: T2, A1 receptor (Homo sapiens, UniProt P30542); experiment: Human adenosine A1 receptor competition binding assay (for selectivity); conditions: A1/A2a Ki ratio
T2 sequence (P30542 1-326): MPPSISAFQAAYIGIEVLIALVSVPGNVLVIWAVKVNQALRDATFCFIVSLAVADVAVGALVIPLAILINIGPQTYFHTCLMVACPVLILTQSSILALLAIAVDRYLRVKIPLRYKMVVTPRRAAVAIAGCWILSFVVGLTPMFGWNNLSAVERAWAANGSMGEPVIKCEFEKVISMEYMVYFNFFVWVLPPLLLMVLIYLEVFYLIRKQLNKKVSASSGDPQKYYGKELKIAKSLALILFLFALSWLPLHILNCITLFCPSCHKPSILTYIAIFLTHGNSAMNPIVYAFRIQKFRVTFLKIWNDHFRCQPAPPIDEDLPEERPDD
Protocol: as §1, §2, §3
A1: [3H]-DPCPX, Amersham Pharmacia Biotech, Piscataway, N.J. Stock is prepared at 2 nM in membrane dilution buffer. Final assay concentration is 1 nM.
A1: To determine non-specific binding, add 100 μM NECA (RBI, Natick, Mass.). Working stock is prepared at 400 μM in compound dilution buffer.
as §4
as §5, with “A1). Add 100 μl of diluted membranes containing the appropriate receptor. Mix. Incubate at room temperature for 90 minutes.” for “A1).”
Selectivity is determined by dividing Ki for A1 receptor by Ki for A2a receptor. […]

T1 sequence (P29274 whole entry): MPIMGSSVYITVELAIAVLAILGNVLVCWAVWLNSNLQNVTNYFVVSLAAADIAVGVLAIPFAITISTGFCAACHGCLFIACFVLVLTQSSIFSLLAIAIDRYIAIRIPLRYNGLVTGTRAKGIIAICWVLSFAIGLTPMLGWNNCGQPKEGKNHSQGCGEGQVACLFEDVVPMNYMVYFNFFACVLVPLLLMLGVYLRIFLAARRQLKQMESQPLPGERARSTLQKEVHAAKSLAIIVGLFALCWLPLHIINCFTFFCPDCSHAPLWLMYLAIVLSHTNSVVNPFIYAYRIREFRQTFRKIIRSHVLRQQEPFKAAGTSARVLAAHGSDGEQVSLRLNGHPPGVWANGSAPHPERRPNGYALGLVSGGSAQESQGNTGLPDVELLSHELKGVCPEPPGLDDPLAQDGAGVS

Ki [1] | selectivity (Ki for A1 receptor divided by Ki for A2a receptor) (A1 receptor) | SMILES
0.2 nM |  | Cc1nc(-c2ccc(F)c(N3CCN(CCn4ncc5c4nc(N)n4nc(-c6cnccn6)nc54)CC3)c2)co1 [Example 1]
 | above 9000 | Cc1nccnc1-c1nc2c3cnn(CCN4CCN(c5cc(-c6ncco6)ccc5F)CC4)c3nc(N)n2n1 [Example 2-28]
